From patent publication US20040033614A1, “Detection of oxidative intermediates in biological samples” (priority 2002, published 2004)

Tests used:
[1] = tested on: urinary MDA; test: Urinary malondialdehyde by fluorometric HPLC, cross-over trial of add-on losartan; assay type: in vivo, patients with chronic kidney disease; conditions: losartan 50 mg/d for 4 weeks added to lisinopril 40 mg/d; significantly decreased from 4.75±3.23 before therapy; mean ± SD, 16 patients
Method: (§1) Sample derivatization was carried out in 2 mL capacity plastic centrifuge tubes fitted with screw-on caps. To a 50 μl aliquot of sample or TEP standard, 50 μl BHT solution, 400 μl H3PO4 solution, and 100 μl TBA solution were added. Sample tubes were capped tightly, vortexed and then heated for 1 hour in a 100° C. dry bath incubator. Following heat derivatization, samples were placed in an ice-water (0° C.) water bath for 5 minutes to cool. 250 μl n-butanol was subsequently added to each vial for extracting the MDA-TBA complex. Tubes were vortexed for 5 minutes and then centrifuged for 3 minutes at 14,000× min^−1 to separate the two phases. Aliquots of 100 μl were removed from the n-butanol layer of each sample and placed in HPLC vials for analysis.
(§2) The chromatographic system consisted of a Hewlett-Packard Chromatographic Series 1100 autosampler and isocratic pump and Hewlett-Packard model 1046A programmable fluorescence detector (Palo Alto, Calif., USA). The autosampler was programmed to inject 10 μl of each sample at 1-minute intervals. The pump flow rate was 1.0 ml/min with the mobile phase comprised of methanol-buffer (40:60, v/v). […] The fluorescence detector was set at an excitation wavelength of 515 nm and emission wavelength of 553 nm. […] Peak areas were determined using a ChromJet integrator (Thermo Separation Products, San Jose, Calif.). […]

[2] = tested on: plasma MDA; test: Plasma malondialdehyde by fluorometric HPLC, cross-over trial of add-on losartan; assay type: in vivo, patients with chronic kidney disease; conditions: losartan 50 mg/d for 4 weeks added to lisinopril 40 mg/d
Method: as §1, §2

[3] = tested on: urinary albumin and total urinary protein oxidation; test: Carbonylation of urine proteins by Western blotting (DNP derivatization, OxyBlot); assay type: in vivo, patients with chronic kidney disease
Method: (§3) The protocol design of this study was reported in detail previously (15). Briefly, patients between the ages of 18 to 80 years with proteinuria of ≧1 g/d, hypertension defined as mean arterial pressure ≧97 mm Hg, serum potassium of ≦5.5 mEq/L and on lisinopril therapy of 40 mg/d for >3 months were eligible for the study. Patients who had previously received angiotensin receptor blockers or with estimated creatine clearance of <30 ml/min were excluded.
(§4) The study was a two period, cross-over, randomized controlled trial. Patients received either a sequence of losartan 50 mg/d for 4 weeks, a two week washout, and then placebo for 4 weeks or placebo for 4 weeks, a two week washout, and then losartan 50 mg/d for 4 weeks. Lisinopril 40 mg/d along with other anti-hypertensive therapy were continued throughout the trial. 24-hour urine was collected for protein, sodium, urea and creatinine, urinary carbonylated protein, malondialdehyde and monocyte chemotactic protein-l (MCP1) measurements. As the standard therapy for patients with proteinuria and renal failure includes ACE-inhibitors, ACE-inhibitors were not removed from any patient enrolled in the study.
Oxidation of plasma and urine proteins was measured by Western blot analysis according to the method of Shacter et al. Total protein was determined using the Vitros Dry Slide system (Ortho-Clinical Diagnostics, Rochester, N.Y.). Plasma was diluted 1:25 (v:v) with phosphate-buffered saline (PBS), and one aliquot of the diluted sample was derivatized and another prepared as an underivatized control using the OxyBlot protein oxidation detection kit (Intergen, Purchase, N.Y.). […] Derivatized and underivatized plasma or urine samples were loaded on electrophoresis gels in volumes calculated to give 5 μg of protein per sample, and the samples were electrophoresed according to the method of Laemmli on 4 to 20% gradient SDS-PAGE (Bio-Rad, Hercules, Calif.). […] Bands were visualized with chemiluminescent chemicals and captured on film at two exposure times (30 seconds and 1 minute). Blots were scanned on a Hewlett-Packard ScanJet 5200C scanner (Hewlett-Packard, Palo Alto, Calif.) and analyzed for band area using Un-Scan-It Gel software (Silk Scientific, Orem, Utah).
Samples from individual patients before and after losartan therapy, including derivatized and underivatized controls, were analyzed on a single Western blot. This ensured that the response to losartan therapy was compared under the same analytical conditions. […] Density of individual albumin bands and total protein in each sample lane was determined using the same size section of each scanned blot. […] The uniform window size and analysis box ensured that data were being analyzed consistently from band to band and from blot to blot. […]

[4] = tested on: plasma albumin and total plasma protein oxidation; test: Carbonylation of plasma proteins by Western blotting (DNP derivatization, OxyBlot); assay type: in vivo, patients with chronic kidney disease; conditions: before vs after losartan 50 mg/d for 4 weeks
Method: as §3
The study was a two period, cross-over, randomized controlled trial. […]
Oxidation of plasma and urine proteins was measured by Western blot analysis according to the method of Shacter et al. Total protein was determined using the Vitros Dry Slide system (Ortho-Clinical Diagnostics, Rochester, N.Y.). […] Derivatized and underivatized plasma or urine samples were loaded on electrophoresis gels in volumes calculated to give 5 μg of protein per sample, and the samples were electrophoresed according to the method of Laemmli on 4 to 20% gradient SDS-PAGE (Bio-Rad, Hercules, Calif.). […] Blots were scanned on a Hewlett-Packard ScanJet 5200C scanner (Hewlett-Packard, Palo Alto, Calif.) and analyzed for band area using Un-Scan-It Gel software (Silk Scientific, Orem, Utah).
Samples from individual patients before and after losartan therapy, including derivatized and underivatized controls, were analyzed on a single Western blot. […]

[5] = tested on: plasma protein carbonyl; test: Total plasma protein carbonyl measurement by size exclusion HPLC; assay type: in vivo, patients with chronic kidney disease; conditions: direct measurement of protein carbonylation in plasma
Method: as §3, §4

[6] = Blood pressure and proteinuria in the add-on losartan trial; assay type: in vivo, patients with chronic kidney disease; conditions: losartan 50 mg/d added to lisinopril 40 mg/d; as reported previously (15)
Method: The protocol design of this study was reported in detail previously (15). Briefly, patients between the ages of 18 to 80 years with proteinuria of ≧1 g/d, hypertension defined as mean arterial pressure ≧97 mm Hg, serum potassium of ≦5.5 mEq/L and on lisinopril therapy of 40 mg/d for >3 months were eligible for the study. […] The study was a two period, cross-over, randomized controlled trial. Patients received either a sequence of losartan 50 mg/d for 4 weeks, a two week washout, and then placebo for 4 weeks or placebo for 4 weeks, a two week washout, and then losartan 50 mg/d for 4 weeks. Lisinopril 40 mg/d along with other anti-hypertensive therapy were continued throughout the trial. […] Serum chemistries, complete blood counts, urine protein, electrolytes, urea and creatinine were measured in a hospital laboratory using routine methods. Specifically, creatinine was measured on a Hitachi 911 analyzer (Boehringer Mannheim) using the alkaline picrate method and urine protein was measured using a turbidometric method using benzethonium chloride read at 550 nm (Roche Diagnostics Corporation, Indianapolis, Ind.). Ambulatory blood pressure was measured with SpaceLabs 90207 monitors and glomerular filtration rate measurements with continuous infusion of iothalamate as previously reported (15).

[7] = tested on: superoxide dismutase and glutathione peroxidase; conditions: 5/6th nephrectomized rats treated with enalapril; reference 26; cited from earlier work

Structure (SMILES)	urinary MDA levels after losartan therapy [1]	plasma MDA, change in response to losartan therapy [2]	total urinary protein oxidation in excess of plasma after losartan therapy ([3]; after treatment, p=0.029, 99% higher before therapy)	urinary albumin oxidation compared to plasma albumin after losartan ([3]; after treatment, p=0.45, 71% higher before therapy)	total urinary protein oxidation, change with losartan ([3]; before vs after losartan 50 mg/d for 4 weeks)	oxidative damage to urinary albumin ([3]; losartan 50 mg/d for 4 weeks added to lisinopril 40 mg/d, before vs after, proteinuria not reduced)	plasma albumin oxidation, change with losartan [4]	plasma protein oxidation, change with losartan [4]	carbonyl concentration from oxidized proteins in plasma, change with losartan [5]	blood pressure, change in response to add-on losartan therapy [6]	proteinuria, change in response to add-on losartan therapy [6]	antioxidant enzymes in the kidney (superoxide dismutase, glutathione peroxidase) [7]
CCCCc1nc(Cl)c(CO)n1Cc1ccc(-c2ccccc2-c2nn[nH]n2)cc1 [losartan]	3.39±2.17 μmol/g creatinine	Neither plasma MDA or plasma oxidized proteins (FIGS. 6B and 7) changed	69%	no more oxidized	did not reach statistical significance	reduced	remained unchanged	remained unchanged	remained unchanged	no change	no change	
CCOC(=O)[C@H](CCc1ccccc1)N[C@@H](C)C(=O)N1CCC[C@H]1C(=O)O [enalapril]												increased
